Experimental data from patent publication US20230234943A1, “TREX1 INHIBITORS AND USES THEREOF” (Tempest Therapeutics, Inc., priority 2020, published 2023).
pIC50: −log10 of the molar value.

The molecules below were run against T1, Human TREX1 enzyme (amino acids 1-242) (Homo sapiens, UniProt Q9NSU2) (assay: Human TREX1 enzymatic assay with dsDNA native oligonucleotide (Picogreen fluorescence)). Conditions: 2 mM dithiothreitol in assay buffer; 50 nM dsDNA oligonucleotide; 30 min preincubation at 25° C.; read-out: TREX1/Human + DTT IC50 AVG.
T1 construct: Human TREX1 enzyme (amino acids 1-242)
T1 sequence (Q9NSU2 1-242): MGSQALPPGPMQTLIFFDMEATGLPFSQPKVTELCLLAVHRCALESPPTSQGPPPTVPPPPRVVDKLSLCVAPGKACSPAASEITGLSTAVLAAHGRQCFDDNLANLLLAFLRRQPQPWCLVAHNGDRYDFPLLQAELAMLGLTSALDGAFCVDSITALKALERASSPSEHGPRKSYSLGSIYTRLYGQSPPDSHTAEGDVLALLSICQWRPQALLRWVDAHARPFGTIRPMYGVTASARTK
Assay type: biochemical
Experimental: Example A. Human TREX1 Enzymatic Assay with dsDNA Native Oligonucleotide
Human TREX1 enzyme (amino acids 1-242) was diluted in assay buffer (20 mM Tris pH 7.7, 5 mM MgCl2, 0.01% human serum albumin, 0.01% Brij™-35, 2 mM dithiothreitol) to a final concentration of 0.8 nM to 0.16 nM and added to a 96-well low-binding polypropylene plate. Test compounds were diluted in DMSO to 50× concentration (final DMSO concentration in reaction mixture of 2%) and added to the wells with a concentration ranging from 300 μM to 13 nM or 30 μM to 1.5 nM. The reaction mixtures were incubated for 30 minutes at 25° C. and a solution of annealed dsDNA oligonucleotide (5′-[…]-3′ and Comp: 5′-[…]-3′) was added to a final concentration of 50 nM. The reaction mixtures were incubated at 25° C. for 5-15 minutes and subsequently quenched by transferring part of the assay reaction to a solution of 100 mM ethylenediaminetetraacetic acid and 1:100 Picogreen™ (final concentration of […]) in a black plate with an opaque bottom. The fluorescence ([…]) was measured using a Molecular Devices SpectraMax plate reader. Wells containing oligonucleotide but no TREX1 enzyme were used as negative controls. Wells containing oligonucleotide, TREX1 enzyme, and DMSO were used as positive controls.

Structure (SMILES)	pIC50
COc1cc(-c2nc3ccncc3[nH]2)c(C)c(O)c1O [Example 78, 4-(3H-imidazo[4,5-c]pyridin-2-yl)-6-methoxy-3-methylbenzene-1,2-diol]	4.00 to 5.00
COc1cc(-c2nc3ccncc3[nH]2)c(-c2cccnc2)c(O)c1O [Example 79, 4-(3H-imidazo[4,5-c]pyridin-2-yl)-6-methoxy-3-(pyridin-3-yl)benzene-1,2-diol]	< 4.00
COc1cc(-c2nc3nc(N4CCOCC4)ncc3[nH]2)cc(O)c1O [Example 80, 3-methoxy-5-(2-morpholino-7H-purin-8-yl)benzene-1,2-diol]	< 4.00
COc1cc(-c2nc3cc(N4CCN(C(=O)c5ccc6ccccc6c5)CC4)ccc3[nH]2)cc(O)c1O [Example 81, (4-(2-(3,4-dihydroxy-5-methoxyphenyl)-1H-benzo[d]imidazol-5-yl)piperazin-1-yl)(naphthalen-2-yl)methanone]	< 4.00
COc1cc(-c2nc3cc(N4CCN(Cc5ccc6ccccc6c5)CC4)ccc3[nH]2)cc(O)c1O [Example 82, 3-methoxy-5-(5-(4-(naphthalen-2-ylmethyl)piperazin-1-yl)-1H-benzo[d]imidazol-2-yl)benzene-1,2-diol]	< 4.00
COc1cc(-c2nc3ccc(N4CCOCC4)cc3n2C2CCOC2)cc(O)c1O (stereo not drawn) [Example 83, 3-methoxy-5-(6-morpholino-1-(tetrahydrofuran-3-yl)-1H-benzo[d]imidazol-2-yl)benzene-1,2-diol]	4.00 to 5.00
COc1cc(-c2nc3cc(N4CCN(C(=O)c5ccc(Cl)cc5)CC4)ccc3[nH]2)cc(O)c1O [Example 84, (4-chlorophenyl)(4-(2-(3,4-dihydroxy-5-methoxyphenyl)-1H-benzo[d]imidazol-5-yl)piperazin-1-yl)methanone]	< 4.00
COc1ccc(C(=O)N2CCN(c3ccc4[nH]c(-c5cc(O)c(O)c(OC)c5)nc4c3)CC2)cc1 [Example 85, (4-(2-(3,4-dihydroxy-5-methoxyphenyl)-1H-benzo[d]imidazol-5-yl)piperazin-1-yl)(4-methoxyphenyl)methanone]	5.00 to 6.00
COc1ccccc1C(=O)N1CCN(c2ccc3[nH]c(-c4cc(O)c(O)c(OC)c4)nc3c2)CC1 [Example 86, (4-(2-(3,4-dihydroxy-5-methoxyphenyl)-1H-benzo[d]imidazol-5-yl)piperazin-1-yl)(2-methoxyphenyl)methanone]	5.00 to 6.00
COc1cc(-c2nc3cc(N4CCN(S(=O)(=O)c5ccccc5)CC4)ccc3[nH]2)cc(O)c1O [Example 87, 3-methoxy-5-(5-(4-(phenylsulfonyl)piperazin-1-yl)-1H-benzo[d]imidazol-2-yl)benzene-1,2-diol]	< 4.00
C#CCCC1(CCC(=O)N2CCN(c3ccc4[nH]c(-c5cc(O)c(O)c(OC)c5)nc4c3)CC2)N=N1 [Example 88, 3-(3-(but-3-yn-1-yl)-3H-diazirin-3-yl)-1-(4-(2-(3,4-dihydroxy-5-methoxyphenyl)-1H-benzo[d]imidazol-5-yl)piperazin-1-yl)propan-1-one]	< 4.00
COc1cc(-c2nc3ccccc3n2C2COC2)cc(C(=O)O)c1O [Example 89, 2-hydroxy-3-methoxy-5-(1-(oxetan-3-yl)-1H-benzo[d]imidazol-2-yl)benzoic acid]	< 4.00
O=C(O)c1c(O)cc(-c2nc3ccncc3[nH]2)cc1F [Example 90, 2-fluoro-6-hydroxy-4-(3H-imidazo[4,5-c]pyridin-2-yl)benzoic acid]	4.00 to 5.00
COc1cc(-c2nc3cc(N4CCNC(C)(C)C4)ccc3[nH]2)cc(O)c1O [Example 91, 5-(5-(3,3-dimethylpiperazin-1-yl)-1H-benzo[d]imidazol-2-yl)-3-methoxybenzene-1,2-diol]	4.00 to 5.00
COc1cc(-c2nc3cc(N(C)C)ccc3[nH]2)cc(O)c1O [Example 92, 5-(5-(dimethylamino)-1H-benzo[d]imidazol-2-yl)-3-methoxybenzene-1,2-diol]	< 4.00
COc1cc(-c2nc3ccncc3n2C)c(-c2cccnc2)c(O)c1O [Example 93, 6-methoxy-4-(3-methyl-3H-imidazo[4,5-c]pyridin-2-yl)-3-(pyridin-3-yl)benzene-1,2-diol]	< 4.00
COc1cc(-c2nc3nc(N4CCOCC4)ccc3[nH]2)cc(O)c1O [Example 94, 3-methoxy-5-(5-morpholino-1H-imidazo[4,5-b]pyridin-2-yl)benzene-1,2-diol]	4.00 to 5.00
COc1cc(-c2nc3cc(N4CCOCC4)ccc3n2C2CCOC2)cc(O)c1O (stereo not drawn) [Example 95, 3-methoxy-5-(5-morpholino-1-(tetrahydrofuran-3-yl)-1H-benzo[d]imidazol-2-yl)benzene-1,2-diol]	4.00 to 5.00
COc1cc(-c2nc3cc(N4CCN(C(=O)c5ccncc5)CC4)ccc3[nH]2)cc(O)c1O [Example 96, (4-(2-(3,4-dihydroxy-5-methoxyphenyl)-1H-benzo[d]imidazol-5-yl)piperazin-1-yl)(pyridin-4-yl)methanone]	4.00 to 5.00
COc1cc(-c2nc3cc(N4CCN(C(=O)c5ccccn5)CC4)ccc3[nH]2)cc(O)c1O [Example 97, (4-(2-(3,4-dihydroxy-5-methoxyphenyl)-1H-benzo[d]imidazol-5-yl)piperazin-1-yl)(pyridin-2-yl)methanone]	4.00 to 5.00
COc1cc(-c2nc3cc(N4CCN(C(=O)c5ccc(C)cc5)CC4)ccc3[nH]2)cc(O)c1O [Example 98, (4-(2-(3,4-dihydroxy-5-methoxyphenyl)-1H-benzo[d]imidazol-5-yl)piperazin-1-yl)(p-tolyl)methanone]	5.00 to 6.00
COc1cc(-c2nc3cc(N4CCN(C(=O)c5ccccc5C)CC4)ccc3[nH]2)cc(O)c1O [Example 99, (4-(2-(3,4-dihydroxy-5-methoxyphenyl)-1H-benzo[d]imidazol-5-yl)piperazin-1-yl)(o-tolyl)methanone]	5.00 to 6.00
COc1cc(-c2nc3cc(N4CCN(C(=O)c5ccc(C)cc5C)CC4)ccc3[nH]2)cc(O)c1O [Example 100, (4-(2-(3,4-dihydroxy-5-methoxyphenyl)-1H-benzo[d]imidazol-5-yl)piperazin-1-yl)(2,4-dimethylphenyl)methanone]	< 4.00
COc1cc(-c2nc3cc(N4CCN(C(=O)c5cccc(C(=O)O)c5)CC4)ccc3[nH]2)cc(O)c1O [Example 101, 3-(4-(2-(3,4-dihydroxy-5-methoxyphenyl)-1H-benzo[d]imidazol-5-yl)piperazine-1-carbonyl)benzoic acid]	4.00 to 5.00
COc1cc(-c2nc3cc(N4CCN(C(=O)c5ccc(C(F)(F)F)cc5)CC4)ccc3[nH]2)cc(O)c1O [Example 102, (4-(2-(3,4-dihydroxy-5-methoxyphenyl)-1H-benzo[d]imidazol-5-yl)piperazin-1-yl)(4-(trifluoromethyl)phenyl)methanone]	< 4.00
COc1cc(-c2nc3cc(N4CCN(C(=O)c5cccc(C(F)(F)F)c5)CC4)ccc3[nH]2)cc(O)c1O [Example 103, (4-(2-(3,4-dihydroxy-5-methoxyphenyl)-1H-benzo[d]imidazol-5-yl)piperazin-1-yl)(3-(trifluoromethyl)phenyl)methanone]	< 4.00
COc1cc(-c2nc3cc(N4CCN(C(=O)c5ccccc5C(F)(F)F)CC4)ccc3[nH]2)cc(O)c1O [Example 104, (4-(2-(3,4-dihydroxy-5-methoxyphenyl)-1H-benzo[d]imidazol-5-yl)piperazin-1-yl)(2-(trifluoromethyl)phenyl)methanone]	< 4.00
